Experimental data as given in US20030138374A1, “Image diagnosis probe based on substituted azobenzene or analogue thereof for disease attributable to amyloid accumulation and composition for image diagnosis containing the same” (priority 2000, published 2003).
Where two headings read alike, the source gives them in different places.

What was measured:
insulin = target: T1, insulin (Homo sapiens, UniProt P01308); assay: Insulin β structure recognition (thioflavin T fluorescence); assay type: binding; conditions: insulin 0.1 mg/ml with β structure; average of two measurements; read-out: Insulin β sheet structure recognition EC50
T1 construct: insulin (purchased from Sigma) was dissolved in deionized water; purchased Sigma
Text: (2)Method of Measuring Insulin β Structure Recognition
It is known that proteins having β sheet structure such as insulin, amylin, etc are present in the human body in addition to the amyloid β protein (Burket et al., Biochemistry, vol. 11, p. 2435-2439, 1972; Ashburn et al, Chemistry and Biology, vol. 3, p. 351-358, 1996). It is desirable that a probe for diagnosing diseases in which amyloid is accumulated, including Alzheimer's disease by recognizing the amyloid protein, has the higher affinity with the amyloid β protein and has the lower affinity with other proteins having β sheet structure. Then, the affinity of each compound to insulin having β structure was measured.
A method of quantifying β sheet structure of insulin in vitro was slightly modified to be used in the test of the present invention, with reference to the report by Klunk et al. (Journal of Histochemistry and Cytochemistry, vol.37, p.1237-1281, 1989). That is, insulin (purchased from Sigma) was dissolved in deionized water, adjusted to pH2 with hydrochloric acid, heated at 92° C. for 10 minutes, and cooled in a dry ice/ethanol cooling bath. Thereafter, heating at 92° C. for 3 minutes and cooling in a dry ice/ethanol cooling bath were repeated 7 or 8 times. This insulin solution was further diluted to 0.1 mg/ml with a phosphate buffer (pH 7.4) , and dispensed in a 96-well microplate at each volume of 50 microliters. A test compound dissolved in deionized water was dispensed at a volume of 50 microliters, and thiofravin T (emitting fluorescence depending on an extent of β structure) dissolved in a glycine-NaOH buffer (pH 8.5) was dispensed at each volume of 100 microliters, and then the fluorescent extent was measured with a fluorescent microplate reader (manufactured by Molecular Device, Model fmax) at an excitation wavelength of 442 nm and a measurement wavelength of 485 nm. When the fluorescence of thioflavin T alone was regarded as D, the fluorescence under the coexistence of insulin and thioflavin T was regarded as E, and the fluorescence under the coexistence of insulin, thioflavin T and a test compound was regarded as F, the insulin β structure recognition for the test compound was calculated by the following formula:
Insulin β structure recognition for test compound (%) ={(E−F)/(E−D)}×100
based on this value, by using the BSAS (Biological Statistical Analysis System) statistic program the 50% effective concentration (EC50) for recognizing an insulin β sheet structure for the test compound was obtained.

[1] = Distribution coefficient between water/1-octanol; assay type: physicochemical; conditions: 1-octanol / aqueous phase, pH 5
amyloid β protein = target: T2, amyloid β protein (Homo sapiens, UniProt P05067); assay: β structure recognition of amyloid β protein (thioflavin T fluorescence); assay type: binding; conditions: for β structure recognition (%) at 1 µM: read-out: β Structure recognition (%); for β structure recognition (in words): comment on Table I
T2 construct: the amyloid β protein (purchased from Peptide Laboratory) was dissolved in a potassium phosphate buffer (pH7.4); purchased Peptide Laboratory
Description: (1) Method of Quantifying the Amyloid β Protein Having β Sheet Structure—method of Measuring of Recognition of β Structure in a Test Compound
Then, each 100 microliters of thioflavin T (which emits fluorescence depending on an extent of β structure of the amyloid β protein) dissolved in a glycine-NaOH buffer (pH 8.5) was added (final concentration 3 μM), and the fluorescence was immediately measured with a fluorescent microplate reader (manufactured by Molecular Device, Model fmax) at an excitation wavelength of 442 nm and a measurement wavelength of 485 nm. When the fluorescence of thioflavin alone was regarded as A, the fluorescence under the coexistence of the amyloid β protein and thioflavin T was regarded as B, and the fluorescence under the coexistence of the amyloid β protein, thioflavin T and a test compound was regarded as C, the recognition of β structure for the test compound was calculated by the following formula (unless otherwise indicated, the concentration of a test compound was 1 μM):
β structure recognition for test compound (%)={(B−C)/(B−A)}×100

[2] = Distribution coefficient between water/1-octanol; assay type: physicochemical
Description: As an oily phase, 1-octanol was used and, as an aqueous phase, a phosphate buffer (pH 7.3) or ultra-pure water was used. A suitable amount of a test compound was dissolved in an oily phase or an aqueous phase, and both phases were placed in the same test tube, and shaken vigorously at room temperature for 30 minutes. After allowing to stand at room temperature over 1 hour, centrifugation at 2000 rpm for 10 minutes was carried out, followed by further standing at room temperature for 1 hour. The aqueous phase and the oily phase were sampled, respectively, and transferred to a 96-well microplate. By using a microplate reader (manufactured by Molecular Device, Model Spectramax 250), the absorbance was measured at a maximum absorbing wavelength for each test compound, and the concentration of the test compound was calculated from a calibration curve previously obtained. A distribution coefficient was calculated by the following formula. Distribution coefficient for test compound =(concentration of test compound in oily phase)/(concentration of test compound in aqueous phase) As the distribution coefficient becomes larger, it can be said that the blood-brain barrier permeability for the test compound is higher.

[3] = test compound 1 μM, thioflavin T 3 μM, average of duplicated experiments

T1 sequence (P01308 25-54 limits assumed, species assumed): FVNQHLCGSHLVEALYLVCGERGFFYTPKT
T1 sequence (P01308 90-110 limits assumed, species assumed): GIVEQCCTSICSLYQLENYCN
T2 sequence (P05067 672-711 limits assumed): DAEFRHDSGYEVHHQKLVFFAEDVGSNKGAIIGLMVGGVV

| Compound | EC50 (insulin) | Distribution coefficient [1] | β structure recognition (%) at 1 µM (amyloid β protein; [3]) | Distribution coefficient ([2]; 1-octanol / phosphate buffer (pH 7.3) or ultra-pure water) | Distribution coefficient (in words) ([2]; comment on Table I) | β structure recognition (in words) (amyloid β protein) | β Structure recognition (%) (amyloid β protein; [3]) | β structure recognition (%) at 1 µM (amyloid β protein) |
| --- | --- | --- | --- | --- | --- | --- | --- | --- |
| O=C(O)c1cc(/N=N/c2ccc(-c3ccc(/N=N/c4ccc(O)c(C(=O)O)c4)cc3)cc2)ccc1O [Chrysamine G, reference compound] | 253 nM | 9.7 (pH 5) | 66.8% |  |  |  |  |  |
| CN(C)c1ccc(/C=C/c2cccc(/C=C/c3ccc(N(C)C)cc3)[n+]2C)cc1.[I-] [Compound N-039, N-[4-(2-{6-[4-(dimethylamino)styryl]-1-methylpiridinium-2-yl}vinyl)phenyl]-N-methylmethanamine] | 113 nM |  | 97.7% | 35 | high distribution coefficients | highly recognize β structure |  |  |
| CCN(CC)c1ccc(/N=C/c2ccc(N(CC)CC)cc2O)cc1 [Compound N-058, 5-(diethylamino)-2-({[4-(diethylamino)phenyl]imino}methyl)phenol] | 129 nM |  |  |  |  | highly recognize β structure | 93.6% |  |
| Nc1c(/N=N/c2ccc(-c3ccc(/N=N/c4cc(S(=O)(=O)O)c5ccccc5c4N)cc3)cc2)cc(S(=O)(=O)O)c2ccccc12 [Congo red, reference compound] | 153 nM |  | 89.3% |  |  |  |  |  |
| CCN(CC)c1ccc(/N=N/c2ccc(Br)cn2)c(O)c1 [SA-147] | 38 nM |  | 87.2% |  |  | highly recognize β structure |  |  |
| CN(C)c1ccc(/N=N/c2ccc(N=C=S)cc2)cc1 [SA-239, 4-((4-isothiocyanatphenyl)azo)-N,N-dimethylaniline] | 120 nM |  |  |  |  | highly recognize β structure |  | 83.3% |
| CN(C)c1ccc(/N=C2\C=CC(=O)c3ccccc32)cc1 [SA-244, Indophenol Blue] | 449 nM |  | 96.9% |  |  | highly recognize β structure |  |  |
